Earlier results as cited in US10975131B2, “Factor H-Fc immunotheraphy” (priority 2015, dated 2021).
Like-named read-outs stand apart in the source and are kept apart here.

Tested on: N. gonorrhoeae strains

CO/N=C(\C(=O)N[C@@H]1C(=O)N2C(C(=O)O)=C(CSc3nc(=O)c(=O)[nH]n3C)CS[C@H]12)c1csc(N)n1 [Ceftriaxone, ceftriaxone]
Ceftriaxone MIC (strain CTXr (Spain), resistant): 2 (resistant) ug/ml | Ceftriaxone MIC (strain FA1090): 0.004 µg/mL | Ceftriaxone MIC (strain H041, resistant): 2-4 (resistant) ug/ml | Ceftriaxone MIC (strain MS11): 0.032 µg/mL | Ceftriaxone MIC (strain NJ-1, agar dilution): 0.023 µg/mL | Ceftriaxone MIC (strain NJ-11, agar dilution): 0.047 µg/mL | Ceftriaxone MIC (strain NJ-15, agar dilution): 0.047 µg/mL | Ceftriaxone MIC (strain NJ-19, agar dilution): 0.032 µg/mL | Ceftriaxone MIC (strain NJ-26, agar dilution): 0.032 µg/mL | Ceftriaxone MIC (strain NJ-27, agar dilution): 0.064 µg/mL | Ceftriaxone MIC (strain NJ-36, agar dilution): 0.032 µg/mL | Ceftriaxone MIC (strain NJ-44, agar dilution, elevated MIC to CRO): 0.125 (elevated ug/ml | Ceftriaxone MIC (strain NJ-48, agar dilution, elevated MIC to CRO): 0.125 (elevated ug/ml | Ceftriaxone MIC (strain NJ-60, agar dilution, resistant): 0.380 (resistant) ug/ml
